# Results reported in patent publication US9242996B2 (Novartis AG, priority 2013, dated 2016).
# pIC50: −log10 of the molar value.
# Target: activated ERK2 (Homo sapiens (Human), UniProt P28482)
# Assay: Activated ERK2 kinase assay, ERK2 New conditions (AlphaScreen, ERKtide phosphorylation)
# Assay type: biochemical
# Settings: 0.25 nM ERK2, 200 nM ERKtide peptide, 35 μM ATP, 30 min preincubation
# Method: The assay is carried out in 50 mM HEPES [pH 7.5], 5 mM MgCl2, 1 mM DTT, 0.01% Tween-20, 0.05% BSA using 0.25 nM ERK2, 200 nM ERKtide peptide and 35 μM ATP (all concentrations are final in the reaction) in a total volume of 10.25 μL. […] Compound dilution series are prepared in 100% DMSO. ERK2 is preincubated with compounds for 30 minutes at ambient temperature. Reaction is initiated by addition of a substrate cocktail of ERKtide peptide and ATP and is allowed to proceed for 2-3 hours at ambient temperature. Reaction is terminated by addition of 10 μL of a 2× stop buffer consisting of 100 mM Tris-Cl [pH 7.5], 25 mM EDTA, 0.01% Tween 20, 10 μg/mL of AlphaScreen Protein A Acceptor Beads, 10 μg/mL of Streptavidin Donor Beads (PerkinElmer, Waltham, Mass.), and 1.4 μg/mL phospho-EGF Receptor (Thr669) antibody (Cat #3056, Cell Signaling Technology, Danvers, Mass.). Terminated reactions are read, after overnight incubation in the dark, on an EnVision Multilabel Plate Reader (PerkinElmer, Waltham, Mass.), with excitation and emission wavelengths set to 680 nm and 570 nm, respectively. IC50 values are determined using a four-parameter fit.
# activated ERK2, sequence (P28482 whole entry): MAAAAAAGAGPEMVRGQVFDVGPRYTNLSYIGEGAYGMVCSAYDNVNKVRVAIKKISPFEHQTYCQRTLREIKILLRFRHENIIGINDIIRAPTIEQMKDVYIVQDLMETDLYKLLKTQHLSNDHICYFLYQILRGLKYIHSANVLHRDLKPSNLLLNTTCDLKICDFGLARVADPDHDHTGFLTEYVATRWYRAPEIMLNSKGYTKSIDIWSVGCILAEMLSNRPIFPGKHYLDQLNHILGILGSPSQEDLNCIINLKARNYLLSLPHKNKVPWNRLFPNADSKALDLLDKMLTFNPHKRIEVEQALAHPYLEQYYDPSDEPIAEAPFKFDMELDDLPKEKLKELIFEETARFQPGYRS
row,pIC50,SMILES
1,7.19,"Nc1ncc([C@@H]2CN[C@H](CO)C2)cc1-c1ccc(C(=O)N[C@H](CO)c2cccc(Cl)c2)c(F)c1 [Example 7, 4-(2-amino-5-((3R,5S)-5-(hydroxymethyl)pyrrolidin-3-yl)pyridin-3-yl)-N—((S)-1-(3-chlorophenyl)-2-hydroxyethyl)-2-fluorobenzamide]"
2,9.83,"Cc1cc(-c2cc(-c3cnnn3C)cnc2N)ccc1C(=O)N[C@H](CO)c1cccc(Cl)c1 [Example 149, (S)-4-(2-amino-5-(1-methyl-1H-1,2,3-triazol-5-yl)pyridin-3-yl)-N-(1-(3-chlorophenyl)-2-hydroxyethyl)-2-methylbenzamide]"
3,7.20,"CO[C@@H]1CCC[C@H](c2cnc(N)c(-c3ccc(C(=O)NCc4ccccc4)c(F)c3)n2)C1 (racemic) [Example 124, (+/−)-cis-4-(3-amino-6-(3-methoxycyclohexyl)pyrazin-2-yl)-N-benzyl-2-fluorobenzamide]"
4,7.12,"C[C@@H](NC(=O)c1ccc(-c2cc(C3CCN(C)C(=O)C3)cnc2N)cc1F)c1ccccc1 (stereo partly drawn) [Example 29, 4-(2-amino-5-(1-methyl-2-oxopiperidin-4-yl)pyridin-3-yl)-2-fluoro-N—((R)-1-phenylethyl)benzamide]"
5,8.45,"CCn1cc(-c2cnc(N)c(-c3ccc(C(=O)N[C@H](C)c4cccc(S(C)(=O)=O)c4)c(F)c3)c2)cn1 [Example 299, (R)-4-(2-amino-5-(1-ethyl-1H-pyrazol-4-yl)pyridin-3-yl)-2-fluoro-N-(1-(3-(methylsulfonyl)phenyl)ethyl) benzamide]"
6,8.97,"Cn1nccc1-c1cnc(N)c(-c2ccc(C(=O)N[C@H](CO)c3cccc(F)c3)c(F)c2)c1 [Example 229, (S)-4-(2-amino-5-(1-methyl-1H-pyrazol-5-yl)pyridin-3-yl)-2-fluoro-N-(1-(3-fluorophenyl)-2-hydroxyethyl) benzamide]"
7,8.57,"Cn1cc(-c2cnc(N)c(-c3ccc(C(=O)NCc4cccc(C(F)F)c4)c(F)c3)c2)cn1 [Example 245, 4-(2-amino-5-(1-methyl-1H-pyrazol-4-yl)pyridin-3-yl)-N-(3-(difluoromethyl)benzyl)-2-fluorobenzamide]"
8,8.77,"C[C@@H](NC(=O)c1ccc(-c2nc([C@H]3CC[C@H](O)CC3)cnc2N)cc1F)c1cccc(Cl)c1 [Example 415, 4-(3-amino-6-((1r,4R)-4-hydroxy-cyclohexyl)pyrazin-2-yl)-N-((R)-1-(3-chlorophenyl)ethyl)-2-fluorobenzamide]"
9,7.40,"Nc1ncc([C@H]2CCC[C@@H](O)C2)nc1-c1ccc(C(=O)NCc2ccccc2)c(F)c1 (racemic) [Example 12, (+/−)-4-(3-amino-6-((1S,3R)-3-hydroxycyclohexyl)pyrazin-2-yl)-N-benzyl-2-fluorobenzamide]"
10,8.78,"Cn1cc(-c2cnc(N)c(-c3ccc(C(=O)N[C@H](CO)c4cccc(F)c4)c(F)c3)n2)cn1 [Example 280, (S)-4-(3-amino-6-(1-methyl-1H-pyrazol-4-yl)pyrazin-2-yl)-2-fluoro-N-(1-(3-fluorophenyl)-2-hydroxyethyl) benzamide]"
11,7.55,"CC(=O)N1CCCC(c2cnc(N)c(-c3ccc(C(=O)N[C@H](CO)c4ccccc4)c(F)c3)n2)C1 (stereo partly drawn) [Example 215, 4-(6-(1-acetylpiperidin-3-yl)-3-aminopyrazin-2-yl)-2-fluoro-N—((S)-2-hydroxy-1-phenylethyl)benzamide]"
12,8.94,C[C@@H](NC(=O)c1ccc(-c2nc(C3CCN(S(C)(=O)=O)CC3)cnc2N)cc1F)c1cccc(Cl)c1 [Example 57]
13,6.45,"Nc1ncc([C@H]2CCS(=O)(=O)C2)cc1-c1ccc(C(=O)NCc2ccccc2)c(F)c1 (single isomer, unassigned) [Example 6]"
14,8.42,"Nc1ncc([C@H]2C[C@H]3COC(=S)N3C2)cc1-c1ccc(C(=O)N[C@H](CO)c2cccc(Cl)c2)c(F)c1 [Example 11, 4-(2-amino-5-((6R,7aS)-3-thioxohexahydropyrrolo[1,2-c]oxazol-6-yl)pyridin-3-yl)-N—((S)-1-(3-chlorophenyl)-2-hydroxyethyl)-2-fluorobenzamide]"
15,9.21,"CCn1cc(-c2cnc(N)c(-c3ccc(C(=O)N[C@H](C)c4cc(F)cc(S(C)(=O)=O)c4)c(F)c3)c2)cn1 [Example 313, (R)-4-(2-amino-5-(1-ethyl-1H-pyrazol-4-yl)pyridin-3-yl)-2-fluoro-N-(1-(3-fluoro-5-(methylsulfonyl)phenyl)ethyl) benzamide]"
16,8.26,"CN1CC(c2cnc(N)c(-c3ccc(C(=O)N[C@H](CO)c4cccc(Cl)c4)c(F)c3)c2)CC1=O (stereo partly drawn) [Example 42, 4-(2-amino-5-(1-methyl-5-oxopyrrolidin-3-yl)pyridin-3-yl)-N—((S)-1-(3-chlorophenyl)-2-hydroxyethyl)-2-fluorobenzamide]"

row,pIC50,SMILES
1,8.71,"CCn1cc(-c2cnc(N)c(-c3ccc(C(=O)N[C@H](CO)c4cccc(F)c4)c(F)c3)c2)cn1 [Example 298, (S)-4-(2-amino-5-(1-ethyl-1H-pyrazol-4-yl)pyridin-3-yl)-2-fluoro-N-(1-(3-fluorophenyl)-2-hydroxyethyl) benzamide]"
2,8.95,"CCn1cc(-c2cnc(N)c(-c3ccc(C(=O)N[C@H](CO)c4ccccc4)c(F)c3)n2)cn1 [Example 217, (S)-4-(3-amino-6-(1-ethyl-1H-pyrazol-4-yl)pyrazin-2-yl)-2-fluoro-N-(2-hydroxy-1-phenylethyl) benzamide]"
3,9.54,"Cc1nn(C)c(C)c1-c1cnc(N)c(-c2ccc(C(=O)N[C@H](CO)c3cccc(Cl)c3)c(F)c2)c1 [Example 154, (S)-4-(2-amino 5-(1,3,5-trimethyl-1H-pyrazol-4-yl)pyridin-3-yl)-N-(1-(3-chlorophenyl)-2-hydroxyethyl)-2-fluorobenzamide]"
4,9.74,"Cn1nncc1-c1cnc(N)c(-c2cc(F)c(C(=O)N[C@H](CO)c3cccc(Cl)c3)c(F)c2)c1 [Example 141, (S)-4-(2-amino-5-(1-methyl-1H-1,2,3-triazol-5-yl)pyridin-3-yl)-N-(1-(3-chlorophenyl)-2-hydroxyethyl)-2,6-difluorobenzamide]"
5,5.87,"Cc1ccnc(CNC(=O)c2ccc(-c3cc(C4CCOCC4)cnc3N)cc2F)n1 [Example 317, 4-(2-amino-5-(tetrahydro-2H-pyran-4-yl)pyridin-3-yl)-2-fluoro-N-((4-methylpyrimidin-2-yl)methyl) benzamde]"
6,8.85,"Nc1ncc(-c2cnoc2)cc1-c1ccc(C(=O)N[C@H](CO)c2ccccc2)c(F)c1 [Example 164, (S)-4-(2-amino-5-(isoxazol-4-yl)pyridin-3-yl)-2-fluoro-N-(2-hydroxy-1-phenylethyl)benzamide]"
7,5.57,"CS(=O)(=O)CCc1cnc(N)c(-c2ccc(C(=O)NCc3ccccc3)c(F)c2)n1 [Example 21, 4-(3-amino-6-(2-(methylsulfonyl)ethyl)pyrazin-2-yl)-N-benzyl-2-fluorobenzamide]"
8,7.73,"Nc1ncc(C2COC2)nc1-c1ccc(C(=O)N[C@H](CO)c2ccccc2)c(F)c1 [Example 224, (S)-4-(3-amino-6-(oxetan-3-yl)pyrazin-2-yl)-2-fluoro-N-(2-hydroxy-1-phenylethyl)benzamide]"
9,7.51,"COC(=O)[C@@H]1C[C@H](c2cnc(N)c(-c3ccc(C(=O)N[C@H](CO)c4cccc(Cl)c4)c(F)c3)c2)CN1 [Example 221, (2S,4R)-methyl 4-(6-amino-5-(4-(((S)-1-(3-chlorophenyl)-2-hydroxyethyl)carbamoyl)-3-fluorophenyl)pyridin-3-yl)pyrrolidine-2-carboxylate]"
10,8.44,"COC(=O)N1CCC(c2cnc(N)c(-c3ccc(C(=O)N[C@H](CO)c4ccccc4)c(F)c3)n2)CC1 [Example 58, (S)-methyl 4-(5-amino-6-(3-fluoro-4-((2-hydroxy-1-phenylethyl)carbamoyl)phenyl)pyrazin-2-yl)piperidine-1-carboxylate]"
11,8.98,"CN1C[C@H](c2cnc(N)c(-c3ccc(C(=O)N[C@H](CO)c4cccc(Cl)c4)c(F)c3)c2)CCC1=O [Example 37, 4-(2-amino-5-((S)-1-methyl-6-oxopiperidin-3-yl)pyridin-3-yl)-N—((S)-1-(3-chlorophenyl)-2-hydroxyethyl)-2-fluorobenzamide]"
12,7.27,"Nc1ncc(C2CCOCC2)nc1-c1ccc(C(=O)N[C@H](CF)c2ccccc2)cc1 [Example 327, (S)-4-(3-amino-6-(tetrahydro-2H-pyran-4-yl)pyrazin-2-yl)-N-(2-fluoro-1-phenylethyl) benzamide]"
13,7.51,"Nc1ncc([C@H]2CCOC2)nc1-c1ccc(C(=O)N[C@H](CO)c2ccccc2)cc1 [Example 137, 4-(3-amino-6-((R)-tetrahydrofuran-3-yl)pyrazin-2-yl)-N—((S)-2-hydroxy-1-phenylethyl)benzamide]"
14,7.29,"CN1CC(c2cnc(N)c(-c3ccc(C(=O)N[C@H](CO)c4ccccc4)c(F)c3)c2)CC1=O (stereo partly drawn) [Example 41, 4-(2-amino-5-(1-methyl-5-oxopyrrolidin-3-yl)pyridin-3-yl)-2-fluoro-N—((S)-2-hydroxy-1-phenylethyl)benzamide]"
15,9.10,"C[C@@H](NC(=O)c1ccc(-c2nc(C3CC3)cnc2N)cc1F)c1cc(F)cc(S(C)(=O)=O)c1 [Example 287, (R)-4-(3-amino-6-cyclo-propylpyrazin-2-yl)-2-fluoro-N-(1-(3-fluoro-5-(methylsulfonyl)phenyl)ethyl) benzamide]"
